According to doi:10.1101/2020.06.11.145995v1 (biorxiv, 2020):
Like-named read-outs stand apart in the source and are kept apart here. Each block holds one compound with its values, some of them ahead of it.

How the values were obtained:
Test in all cases: biochemical
[1] = target: PRKD3 (Homo sapiens, UniProt O94806)
[2] = target: MKK7 (Homo sapiens, UniProt O14733)
[3] = target: PFTAIRE2 (Homo sapiens, UniProt Q96Q40)
[4] = target: PIK3CA(H1047Y (Homo sapiens, UniProt P42336, H1047Y))
[5] = target: PIK3CA(C420R) (Homo sapiens, UniProt P42336, C420R)
[6] = target: PIK3CA(M1043I (Homo sapiens, UniProt P42336, M1043I))
[7] = target: ROS1 (Homo sapiens, UniProt P08922)
Sequence of ROS1 (P08922 whole entry): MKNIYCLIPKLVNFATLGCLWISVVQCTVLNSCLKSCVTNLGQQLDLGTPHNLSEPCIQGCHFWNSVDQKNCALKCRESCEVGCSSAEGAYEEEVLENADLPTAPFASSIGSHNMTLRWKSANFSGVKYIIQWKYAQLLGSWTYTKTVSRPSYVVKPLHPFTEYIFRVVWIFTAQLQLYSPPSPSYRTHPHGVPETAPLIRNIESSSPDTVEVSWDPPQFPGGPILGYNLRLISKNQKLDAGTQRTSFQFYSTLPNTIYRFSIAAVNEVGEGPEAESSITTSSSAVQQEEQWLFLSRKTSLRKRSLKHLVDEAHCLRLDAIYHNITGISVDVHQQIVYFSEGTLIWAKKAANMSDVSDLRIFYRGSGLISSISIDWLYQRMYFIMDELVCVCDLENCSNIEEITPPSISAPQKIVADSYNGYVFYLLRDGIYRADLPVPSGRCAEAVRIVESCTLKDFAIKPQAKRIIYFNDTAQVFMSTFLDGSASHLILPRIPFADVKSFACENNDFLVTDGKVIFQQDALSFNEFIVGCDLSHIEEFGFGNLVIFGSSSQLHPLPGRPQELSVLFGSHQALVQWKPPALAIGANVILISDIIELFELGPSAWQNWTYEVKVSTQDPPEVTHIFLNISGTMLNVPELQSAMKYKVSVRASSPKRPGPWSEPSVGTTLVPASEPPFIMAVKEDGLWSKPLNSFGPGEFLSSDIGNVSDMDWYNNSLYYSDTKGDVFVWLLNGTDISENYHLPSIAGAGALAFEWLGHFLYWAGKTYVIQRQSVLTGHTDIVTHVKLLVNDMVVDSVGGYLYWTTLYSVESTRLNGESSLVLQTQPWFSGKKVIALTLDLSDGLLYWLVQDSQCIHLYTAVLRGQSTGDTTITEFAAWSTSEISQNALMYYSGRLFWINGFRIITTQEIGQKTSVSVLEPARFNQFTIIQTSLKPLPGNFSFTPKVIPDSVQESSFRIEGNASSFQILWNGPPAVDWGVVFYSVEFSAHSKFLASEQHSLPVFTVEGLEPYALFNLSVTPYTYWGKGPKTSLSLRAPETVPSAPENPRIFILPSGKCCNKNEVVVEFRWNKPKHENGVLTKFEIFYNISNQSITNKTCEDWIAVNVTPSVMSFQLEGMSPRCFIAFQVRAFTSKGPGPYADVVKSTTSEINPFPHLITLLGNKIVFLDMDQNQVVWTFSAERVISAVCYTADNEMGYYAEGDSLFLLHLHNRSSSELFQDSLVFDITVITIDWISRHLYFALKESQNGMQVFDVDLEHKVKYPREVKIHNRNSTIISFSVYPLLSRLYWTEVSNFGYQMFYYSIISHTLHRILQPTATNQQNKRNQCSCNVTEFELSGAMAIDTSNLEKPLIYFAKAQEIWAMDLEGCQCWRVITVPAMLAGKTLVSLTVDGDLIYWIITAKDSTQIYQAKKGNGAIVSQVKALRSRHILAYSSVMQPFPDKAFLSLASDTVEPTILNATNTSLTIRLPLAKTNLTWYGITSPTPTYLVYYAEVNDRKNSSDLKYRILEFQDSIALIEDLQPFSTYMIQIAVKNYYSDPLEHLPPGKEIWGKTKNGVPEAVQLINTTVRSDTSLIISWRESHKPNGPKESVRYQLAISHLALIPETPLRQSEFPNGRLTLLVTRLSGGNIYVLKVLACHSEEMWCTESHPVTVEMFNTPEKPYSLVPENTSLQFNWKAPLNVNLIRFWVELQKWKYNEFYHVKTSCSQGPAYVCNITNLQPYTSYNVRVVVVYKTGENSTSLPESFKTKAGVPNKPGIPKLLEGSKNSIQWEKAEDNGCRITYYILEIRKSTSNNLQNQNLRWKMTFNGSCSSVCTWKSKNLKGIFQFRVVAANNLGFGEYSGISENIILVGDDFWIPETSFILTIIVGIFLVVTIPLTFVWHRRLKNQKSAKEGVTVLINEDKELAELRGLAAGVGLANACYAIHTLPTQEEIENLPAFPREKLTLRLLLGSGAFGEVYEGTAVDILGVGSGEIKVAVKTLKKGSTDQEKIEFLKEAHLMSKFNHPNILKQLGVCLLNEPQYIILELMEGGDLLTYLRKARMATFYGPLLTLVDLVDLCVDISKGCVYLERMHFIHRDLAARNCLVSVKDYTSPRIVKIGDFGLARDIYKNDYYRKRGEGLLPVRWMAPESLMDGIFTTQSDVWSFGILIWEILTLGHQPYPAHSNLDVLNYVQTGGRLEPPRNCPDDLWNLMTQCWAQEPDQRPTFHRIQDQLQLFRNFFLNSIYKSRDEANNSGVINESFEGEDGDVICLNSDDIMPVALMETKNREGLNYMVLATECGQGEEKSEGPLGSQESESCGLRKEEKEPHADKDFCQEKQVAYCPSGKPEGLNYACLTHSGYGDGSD

[8] = target: QSK (Homo sapiens, UniProt Q9Y2K2)
[9] = target: ULK1 (Homo sapiens, UniProt O75385)
[10] = target: NDR1 (Homo sapiens, UniProt Q15208)
[11] = target: NEK3 (Homo sapiens, UniProt P51956)
Sequence of NEK3 (P51956 whole entry): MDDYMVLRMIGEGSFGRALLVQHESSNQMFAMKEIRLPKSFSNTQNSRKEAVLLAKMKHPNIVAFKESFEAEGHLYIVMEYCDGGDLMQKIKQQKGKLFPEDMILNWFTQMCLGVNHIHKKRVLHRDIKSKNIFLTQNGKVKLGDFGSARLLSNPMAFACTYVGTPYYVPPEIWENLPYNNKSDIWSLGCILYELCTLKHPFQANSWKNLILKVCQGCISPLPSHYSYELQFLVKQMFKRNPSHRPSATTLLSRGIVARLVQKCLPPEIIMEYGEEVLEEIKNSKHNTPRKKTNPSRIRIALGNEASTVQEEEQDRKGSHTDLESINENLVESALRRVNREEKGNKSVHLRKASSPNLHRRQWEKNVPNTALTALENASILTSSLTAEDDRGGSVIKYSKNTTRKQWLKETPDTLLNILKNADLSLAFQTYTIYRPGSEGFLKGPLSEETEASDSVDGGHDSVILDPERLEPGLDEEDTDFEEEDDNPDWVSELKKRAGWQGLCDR

[12] = target: RPS6KA5 (Homo sapiens, UniProt O75582)
Sequence of RPS6KA5 (O75582 whole entry): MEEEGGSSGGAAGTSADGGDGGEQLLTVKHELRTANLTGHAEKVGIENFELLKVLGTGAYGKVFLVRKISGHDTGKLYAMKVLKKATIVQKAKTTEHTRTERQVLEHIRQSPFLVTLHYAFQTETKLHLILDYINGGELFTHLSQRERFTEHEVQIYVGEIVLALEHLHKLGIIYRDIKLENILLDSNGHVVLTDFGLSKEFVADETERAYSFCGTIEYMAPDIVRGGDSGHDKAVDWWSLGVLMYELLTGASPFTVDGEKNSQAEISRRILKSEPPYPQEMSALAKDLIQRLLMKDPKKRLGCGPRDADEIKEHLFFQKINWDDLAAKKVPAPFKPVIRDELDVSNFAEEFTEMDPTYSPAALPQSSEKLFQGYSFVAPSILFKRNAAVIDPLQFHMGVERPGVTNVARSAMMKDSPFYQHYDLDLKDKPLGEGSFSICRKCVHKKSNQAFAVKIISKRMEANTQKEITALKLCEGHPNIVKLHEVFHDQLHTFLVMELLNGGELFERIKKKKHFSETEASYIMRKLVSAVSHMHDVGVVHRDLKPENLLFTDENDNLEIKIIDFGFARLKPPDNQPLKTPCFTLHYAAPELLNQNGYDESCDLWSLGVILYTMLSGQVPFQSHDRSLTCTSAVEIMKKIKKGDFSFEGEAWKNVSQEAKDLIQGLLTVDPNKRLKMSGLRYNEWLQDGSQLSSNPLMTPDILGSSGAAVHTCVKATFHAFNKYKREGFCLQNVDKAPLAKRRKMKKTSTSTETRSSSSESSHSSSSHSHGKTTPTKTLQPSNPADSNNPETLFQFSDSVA

[13] = target: PIK3CA(I800L) (Homo sapiens, UniProt P42336, I800L)
[14] = target: TAOK1 (Homo sapiens, UniProt Q7L7X3)
[15] = target: YANK3 (Homo sapiens, UniProt Q86UX6)
[16] = target: PFTK1 (Homo sapiens, UniProt O94921)
[17] = target: TAOK3 (Homo sapiens, UniProt Q9H2K8)
[18] = target: STK35 (Homo sapiens, UniProt Q8TDR2)
[19] = target: RET (Homo sapiens, UniProt P07949)
[20] = target: p38-beta (Homo sapiens, UniProt Q15759)
[21] = target: TEC (Homo sapiens, UniProt P42680)
[22] = target: NEK1 (Homo sapiens, UniProt Q96PY6)
[23] = target: NEK5 (Homo sapiens, UniProt Q6P3R8)
[24] = target: TAOK2 (Homo sapiens, UniProt Q9UL54)
[25] = target: NDR2 (Homo sapiens, UniProt Q9Y2H1)
Sequence of NDR2 (Q9Y2H1 whole entry): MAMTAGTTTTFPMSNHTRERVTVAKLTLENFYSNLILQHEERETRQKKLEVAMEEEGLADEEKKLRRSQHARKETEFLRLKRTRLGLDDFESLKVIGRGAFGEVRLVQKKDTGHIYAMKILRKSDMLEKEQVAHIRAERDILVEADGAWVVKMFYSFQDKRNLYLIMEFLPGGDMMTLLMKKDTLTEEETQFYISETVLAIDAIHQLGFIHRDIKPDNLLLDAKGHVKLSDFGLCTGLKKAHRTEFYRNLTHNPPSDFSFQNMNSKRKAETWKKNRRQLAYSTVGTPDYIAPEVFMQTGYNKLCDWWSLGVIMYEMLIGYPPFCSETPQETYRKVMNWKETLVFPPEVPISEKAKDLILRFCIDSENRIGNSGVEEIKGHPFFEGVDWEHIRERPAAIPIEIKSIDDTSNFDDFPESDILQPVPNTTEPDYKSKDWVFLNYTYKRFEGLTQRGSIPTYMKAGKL

[26] = target: PAK4 (Homo sapiens, UniProt O96013)
[27] = target: SBK1 (Homo sapiens, UniProt Q52WX2)
[28] = target: PAK7 (Homo sapiens, UniProt Q9P286)
[29] = target: PDPK1 (Homo sapiens, UniProt O15530)
[30] = read-out: CPT-1-70-1 (1μM) % control
[31] = read-out: HYJ-2-002-1 (1μM) % control

Sequence of PRKD3 (O94806 whole entry): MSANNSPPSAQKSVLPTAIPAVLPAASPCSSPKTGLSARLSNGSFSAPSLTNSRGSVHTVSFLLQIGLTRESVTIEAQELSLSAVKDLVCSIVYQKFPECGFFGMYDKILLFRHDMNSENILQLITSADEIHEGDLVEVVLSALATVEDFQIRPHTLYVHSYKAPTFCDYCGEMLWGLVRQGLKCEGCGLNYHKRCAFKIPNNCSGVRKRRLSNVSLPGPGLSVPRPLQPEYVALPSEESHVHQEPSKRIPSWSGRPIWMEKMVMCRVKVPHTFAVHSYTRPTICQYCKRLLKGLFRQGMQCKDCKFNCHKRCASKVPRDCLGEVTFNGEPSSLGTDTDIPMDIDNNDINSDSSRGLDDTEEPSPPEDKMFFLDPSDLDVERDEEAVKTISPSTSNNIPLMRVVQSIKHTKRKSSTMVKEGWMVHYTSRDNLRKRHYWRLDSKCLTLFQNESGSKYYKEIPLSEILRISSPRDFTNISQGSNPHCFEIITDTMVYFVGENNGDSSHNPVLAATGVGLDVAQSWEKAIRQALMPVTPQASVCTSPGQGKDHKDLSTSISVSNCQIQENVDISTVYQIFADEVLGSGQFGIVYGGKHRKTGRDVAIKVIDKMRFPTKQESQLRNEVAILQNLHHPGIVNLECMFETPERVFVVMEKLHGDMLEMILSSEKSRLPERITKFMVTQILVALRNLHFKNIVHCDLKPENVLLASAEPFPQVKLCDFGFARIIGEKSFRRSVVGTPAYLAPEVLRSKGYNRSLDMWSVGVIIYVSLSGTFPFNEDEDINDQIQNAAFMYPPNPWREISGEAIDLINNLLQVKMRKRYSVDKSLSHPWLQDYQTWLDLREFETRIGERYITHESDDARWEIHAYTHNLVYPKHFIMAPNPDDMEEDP

SMILES: CN1CCN(c2ccc(Nc3nc(Oc4ccc(NC(=O)CCl)cc4)c4cc[nH]c4n3)cc2)CC1 [CPT1-70-1]
remaining activity at 1 µM [1, 30]: 54% | remaining activity at 1 µM [2, 30]: 8.1% | remaining activity at 1 µM [3, 30]: 100% | remaining activity at 1 µM [4, 30]: 100% | remaining activity at 1 µM [5, 30]: 100% | remaining activity at 1 µM [6, 30]: 100% | remaining activity at 1 µM [7, 30]: 100% | remaining activity at 1 µM [8, 30]: 100% | remaining activity at 1 µM [9, 30]: 32% | remaining activity at 1 µM [10, 30]: 37% | remaining activity at 1 µM [11, 30]: 68% | remaining activity at 1 µM ([12]; read-out: CPT-1-70-1 (1μM) % control, Kin.Dom.1-N-terminal): 100% | remaining activity at 1 µM [13, 30]: 100% | remaining activity at 1 µM [14, 30]: 96% | remaining activity at 1 µM [15, 30]: 100% | remaining activity at 1 µM [16, 30]: 100% | remaining activity at 1 µM [17, 30]: 71% | remaining activity at 1 µM [18, 30]: 100% | remaining activity at 1 µM [19, 30]: 25% | remaining activity at 1 µM [20, 30]: 100% | remaining activity at 1 µM [21, 30]: 10% | remaining activity at 1 µM [22, 30]: 100% | remaining activity at 1 µM [23, 30]: 82% | remaining activity at 1 µM [24, 30]: 65% | remaining activity at 1 µM [25, 30]: 61% | remaining activity at 1 µM [26, 30]: 12% | remaining activity at 1 µM [27, 30]: 10% | remaining activity at 1 µM [28, 30]: 13% | remaining activity at 1 µM [29, 30]: 64%

remaining activity at 1 µM [1, 31]: 67% | remaining activity at 1 µM [2, 31]: 8.2% | remaining activity at 1 µM [3, 31]: 94% | remaining activity at 1 µM [4, 31]: 100% | remaining activity at 1 µM [5, 31]: 100% | remaining activity at 1 µM [6, 31]: 100% | remaining activity at 1 µM [7, 31]: 100% | remaining activity at 1 µM [8, 31]: 100% | remaining activity at 1 µM [9, 31]: 89% | remaining activity at 1 µM [10, 31]: 100% | remaining activity at 1 µM [11, 31]: 100% | remaining activity at 1 µM ([12]; read-out: HYJ-2-002-1 (1μM) % control, Kin.Dom.1-N-terminal): 76% | remaining activity at 1 µM ([12]; read-out: HYJ-2-002-1 (1μM) % control, Kin.Dom.2-C-terminal): 100% | remaining activity at 1 µM [13, 31]: 100% | remaining activity at 1 µM [14, 31]: 34% | remaining activity at 1 µM [15, 31]: 100% | remaining activity at 1 µM [16, 31]: 100% | remaining activity at 1 µM [17, 31]: 0.45% | remaining activity at 1 µM [18, 31]: 91% | remaining activity at 1 µM [19, 31]: 0.15% | remaining activity at 1 µM [20, 31]: 0.35% | remaining activity at 1 µM [21, 31]: 3.8% | remaining activity at 1 µM [22, 31]: 82% | remaining activity at 1 µM [23, 31]: 21% | remaining activity at 1 µM [24, 31]: 18% | remaining activity at 1 µM [25, 31]: 100% | remaining activity at 1 µM [26, 31]: 99% | remaining activity at 1 µM [27, 31]: 93% | remaining activity at 1 µM [28, 31]: 92% | remaining activity at 1 µM [29, 31]: 72%
SMILES: CCN1CCN(Cc2ccc(NC(=O)c3ccc(C)c(CCc4cnc5[nH]ccc5c4OC)c3)cc2C(F)(F)F)CC1 [HYJ-2-002-1]
